Laboratory results published in patent US20240173307A1, “MODULATORS OF THE INTEGRATED STRESS PATHWAY” (Calico Life Sciences LLC, priority 2017, published 2024).

Test system: HEK293T cells carrying the ATF4 luciferase reporter
Test: ATF4-Luc assay (in vitro model of vanishing white matter disease)
Assay type: cell-based
Conditions: Homo sapiens, HEK-293T, 1 μg/mL tunicamycin, 7 hours
Procedure: In order to test exemplary compounds of the invention in a cellular context, a stable VWMD cell line was first constructed. The ATF4 reporter was prepared by fusing the human full-length ATF4 5′-UTR (NCBI Accession No. BCO22088.2) in front of the firefly luciferase (FLuc) coding sequence lacking the initiator methionine as described in Sidrauski et al (eLife 2013). The construct was used to produce recombinant retroviruses using standard methods and the resulting viral supernatant was used to transduce HEK293T cells, which were then subsequently selected with puromycin to generate a stable cell line.
HEK293T cells carrying the ATF4 luciferase reporter were plated on polylysine coated 384-well plates (Greiner Bio-one) at 30,000 cells per well. Cells were treated the next day with 1 μg/mL tunicamycin and 200 nM of a compound of Formula (I) for 7 hours. Luminescence was measured using One Glo (Promega) as specified by the manufacturer. Cells were maintained in DMEM with L-glutamine supplemented with 10% heat-inactivated FBS (Gibco) and Antibiotic-Antimycotic solution (Gibco).
Table 2 below summarizes the EC50 data obtained using the ATF4-Luc assay for exemplary compounds of the invention.

| SMILES | EC50 [nM] |
| --- | --- |
| O=C(COc1ccc(Cl)c(F)c1)NC12CCC(C(=O)NCc3nc4ccccc4[nH]3)(CC1)CC2 [Compound 327, N-[(1H-benzimidazol-2-yl)methyl]-4-[2-(4-chloro-3-fluorophenoxy)acetamido]bicyclo[2.2.2]octane-1-carboxamide] | < 250 |
| O=C(COc1ccc(Cl)c(F)c1)NC12CCC(C(=O)Nc3ccc(OC(F)(F)F)nc3)(CC1)OC2 [Compound 341, 4-[2-(4-chloro-3-fluorophenoxy)acetamido]-N-[6-(trifluoromethoxy)pyridin-3-yl]-2-oxabicyclo[2.2.2]octane-1-carboxamide] | < 250 |
| O=C(COc1ccc(Cl)c(F)c1)NC12CC(C(=O)NC(CO)c3ccc(Cl)cc3)(C1)C2 (stereo not shown) [Compound 318, 3-[2-(4-chloro-3-fluorophenoxy)acetamido]-N-[1-(4-chlorophenyl)-2-hydroxyethyl]bicyclo[1.1.1]pentane-1-carboxamide] | > 2000 |
| O=C(COc1ccc(Cl)c(F)c1)NC12CCC(C(=O)NCc3ccc(C(F)(F)F)cn3)(CC1)C[C@H]2O (single isomer, unassigned) [Compound 271] | < 250 |
| O=C(COc1ccc(Cl)c(F)c1)NC12CC(C(=O)NCCCc3cccnc3)(C1)C2 [Compound 253, 3-[2-(4-chloro-3-fluorophenoxy)acetamido]-N-[3-(pyridin-3-yl)propyl]bicyclo[1.1.1]pentane-1-carboxamide] | 1000 to 2000 |
| O=C(COc1ccc(Cl)c(Cl)c1)NC12CC(C(=O)Nc3ccc(OC(F)(F)F)cn3)(C1)C2 [Compound 291, 3-[2-(3,4-dichlorophenoxy)acetamido]-N-[5-(trifluoromethoxy)pyridin-2-yl]bicyclo[1.1.1]pentane-1-carboxamide] | < 250 |
| Cc1cnc(CNC(=O)C23CCC(NC(=O)COc4ccc(Cl)c(F)c4)(CC2)CC3)cn1 [Compound 258, 4-[2-(4-chloro-3-fluorophenoxy)acetamido]-N-[(5-methylpyrazin-2-yl)methyl]bicyclo[2.2.2]octane-1-carboxamide] | 500 to 1000 |
| O=C(COc1ccc(Cl)c(F)c1)NC12CCC(C(=O)Nc3ccc(Cl)c(F)c3)(CC1)OC2 [Compound 338, 4-[2-(4-chloro-3-fluorophenoxy)acetamido]-N-(4-chloro-3-fluorophenyl)-2-oxabicyclo[2.2.2]octane-1-carboxamide] | < 250 |
| COc1ccc(NC(=O)C23CC(NC(=O)COc4ccc(Cl)c(F)c4)(C2)C3)nc1 [Compound 303, 3-[2-(4-chloro-3-fluorophenoxy)acetamido]-N-(5-methoxypyridin-2-yl)bicyclo[1.1.1]pentane-1-carboxamide] | 250 to 500 |
| O=C(COc1ccc(Cl)c(Cl)c1)NC12CC(C(=O)Nc3ccccn3)(C1)C2 [Compound 289, 3-[2-(3,4-dichlorophenoxy)acetamido]-N-(pyridin-2-yl)bicyclo[1.1.1]pentane-1-carboxamide] | < 250 |
| O=C(COc1ccc(Cl)c(F)c1)NC12CCC(C(=O)NCc3nc4cc(F)c(F)cc4[nH]3)(CC1)CC2 [Compound 324, 4-[2-(4-chloro-3-fluorophenoxy)acetamido]-N-[(5,6-difluoro-1H-benzimidazol-2-yl)methyl]bicyclo[2.2.2]octane-1-carboxamide] | < 250 |
| COc1cnc(NC(=O)C23CC(NC(=O)COc4ccc(Cl)c(F)c4)(C2)C3)nc1 [Compound 302, 3-[2-(4-chloro-3-fluorophenoxy)acetamido]-N-(5-methoxypyrimidin-2-yl)bicyclo[1.1.1]pentane-1-carboxamide] | 250 to 500 |
| COc1ccc(CNC(=O)C23CC(NC(=O)COc4ccc(Cl)c(F)c4)(C2)C3)nn1 [Compound 322, 3-[2-(4-chloro-3-fluorophenoxy)acetamido]-N-[(6-methoxypyridazin-3-yl)methyl]bicyclo[1.1.1]pentane-1-carboxamide] | > 2000 |
| O=C(COc1ccc(Cl)c(F)c1)NC12CC(C(=O)Nc3ccc(Cl)cc3)(C1)C2 [Compound 283, 3-[2-(4-chloro-3-fluorophenoxy)acetamido]-N-(4-chlorophenyl)bicyclo[1.1.1]pentane-1-carboxamide] | < 250 |
| O=C(COc1ccc(Cl)c(F)c1)NC12CCC(C(=O)NCc3ccc(C(F)F)cn3)(CC1)CC2 [Compound 346, 4-[2-(4-chloro-3-fluorophenoxy)acetamido]-N-{[5-(difluoromethyl)pyridin-2-yl]methyl}bicyclo[2.2.2]octane-1-carboxamide] | < 250 |
| O=C(COc1ccc(Cl)c(F)c1)NC12CCC(C(=O)Nc3ccc(Cl)cc3)(C1)C2 [Compound 286, 4-[2-(4-chloro-3-fluorophenoxy)acetamido]-N-(4-chlorophenyl)bicyclo[2.1.1]hexane-1-carboxamide] | > 2000 |

| SMILES | EC50 [nM] |
| --- | --- |
| O=C(COc1ccc(Cl)c(F)c1)NC12CCC(C(=O)Nc3ccc(OCC(F)(F)F)nc3)(CC1)CC2 [Compound 281, 4-[2-(4-chloro-3-fluorophenoxy)acetamido]-N-[6-(2,2,2-trifluoroethoxy)pyridin-3-yl]bicyclo[2.2.2]octane-1-carboxamide] | > 2000 |
| O=C(COc1ccc(Cl)c(F)c1)NC12CCC(C(=O)NCc3ccc(Cl)cn3)(CC1)CC2 [Compound 257, 4-[2-(4-chloro-3-fluorophenoxy)acetamido]-N-[(5-chloropyridin-2-yl)methyl]bicyclo[2.2.2]octane-1-carboxamide] | < 250 |
| O=C(COc1ccc(Cl)c(F)c1)NC12CCC(C(=O)NCc3ccc(C(F)(F)F)cc3)(CC1)CC2O (stereo not shown) [Compound 274, 4-[2-(4-chloro-3-fluorophenoxy)acetamido]-3-hydroxy-N-{[4-(trifluoromethyl)phenyl]methyl}bicyclo[2.2.2]octane-1-carboxamide] | < 250 |
| O=C(COc1ccc(Cl)c(F)c1)NC12CCC(C(=O)NCC(=O)c3ccc(Cl)cc3)(CC1)[C@H](O)C2 [Compound 276, (2R)-4-[2-(4-chloro-3-fluorophenoxy)acetamido]-N-[2-(4-chlorophenyl)-2-oxoethyl]-2-hydroxybicyclo[2.2.2]octane-1-carboxamide] | < 250 |
| O=C(COc1ccc(Cl)c(Cl)c1)NC12CCC(C(=O)NCc3ccc(C(F)(F)F)cc3)(CC1)[C@H](O)C2 (single isomer, unassigned) [Compound 263] | < 250 |
| N#Cc1ccc(NC(=O)C23CC(NC(=O)COc4ccc(Cl)c(F)c4)(C2)C3)nc1 [Compound 305, 3-[2-(4-chloro-3-fluorophenoxy)acetamido]-N-(5-cyanopyridin-2-yl)bicyclo[1.1.1]pentane-1-carboxamide] | < 250 |
| O=C(COc1ccc(Cl)c(F)c1)NC12CC(C(=O)NCc3ccc(C(F)F)cn3)(C1)C2 [Compound 345, 3-[2-(4-chloro-3-fluorophenoxy)acetamido]-N-{[5-(difluoromethyl)pyridin-2-yl]methyl}bicyclo[1.1.1]pentane-1-carboxamide] | 250 to 500 |
| O=C(COc1ccc(Cl)c(Cl)c1)NC12CCC(C(=O)Nc3ccc(OC(F)(F)F)cn3)(C1)C2 [Compound 292, 4-[2-(3,4-dichlorophenoxy)acetamido]-N-[5-(trifluoromethoxy)pyridin-2-yl]bicyclo[2.1.1]hexane-1-carboxamide] | < 250 |
| CCOC(=O)c1csc(NC(=O)C23CC(NC(=O)COc4ccc(Cl)c(F)c4)(C2)C3)n1 [Compound 312, ethyl 2-({3-[2-(4-chloro-3-fluorophenoxy)acetamido]bicyclo[1.1.1]pentane-1-carbonyl}amino)-1,3-thiazole-4-carboxylate] | 250 to 500 |
| O=C(COc1ccc(Cl)c(Cl)c1)NC12CCC(C(=O)NCc3ccc(C(F)(F)F)cc3)(CC1)C(O)C2 (stereo not shown) [Compound 255, 4-[2-(3,4-dichlorophenoxy)acetamido]-2-hydroxy-N-{[4-(trifluoromethyl)phenyl]methyl}bicyclo[2.2.2]octane-1-carboxamide] | < 250 |
| O=C(COc1ccc(Cl)c(F)c1)NC12CCC(C(=O)Nc3ccc(OC(F)F)nc3)(CC1)CC2 [Compound 278, 4-[2-(4-chloro-3-fluorophenoxy)acetamido]-N-[6-(difluoromethoxy)pyridin-3-yl]bicyclo[2.2.2]octane-1-carboxamide] | < 250 |
| O=C(COc1ccc(Cl)c(F)c1)NC12CC(C(=O)Nc3ccccn3)(C1)C2 [Compound 290, 3-[2-(4-chloro-3-fluorophenoxy)acetamido]-N-(pyridin-2-yl)bicyclo[1.1.1]pentane-1-carboxamide] | < 250 |
| O=C(COc1ccc(Cl)c(F)c1)NC12CCC(C(=O)NCc3ccc(OC(F)F)nc3)(CC1)CC2 [Compound 262, 4-[2-(4-chloro-3-fluorophenoxy)acetamido]-N-{[6-(difluoromethoxy)pyridin-3-yl]methyl}bicyclo[2.2.2]octane-1-carboxamide] | < 250 |
| O=C(COc1ccc(Cl)c(F)c1)NC12CCC(C(=O)NCc3nc4cc(F)c(F)cc4[nH]3)(CC1)CC2O (stereo not shown) [Compound 319, 4-[2-(4-chloro-3-fluorophenoxy)acetamido]-N-[(5,6-difluoro-1H-benzimidazol-2-yl)methyl]-3-hydroxybicyclo[2.2.2]octane-1-carboxamide] | < 250 |
| O=C(COc1ccc(Cl)c(F)c1)NC12CC(C(=O)Nc3ccc(OC(F)(F)F)cn3)(C1)C2 [Compound 287, 3-[2-(4-chloro-3-fluorophenoxy)acetamido]-N-[5-(trifluoromethoxy)pyridin-2-yl]bicyclo[1.1.1]pentane-1-carboxamide] | < 250 |
